{"source": "patent US7541446B2", "about": "“Tet repressor-based transcriptional regulatory proteins” (Tet Systems Holding GmbH & Co. KG, priority 1999, dated 2009)", "format_in_all_cases": "cell-based", "key": {"[1]": {"system": "GFP controlled by a tTA/rtTA responsive promoter", "experiment": "rtTA dependent GFP fluorescence in S. cerevisiae", "settings": "for basal activity (GFP fluorescence in the absence of inducer): excitation 490 nm, emission 512 nm", "description": "Thus, a plasmid, designated pCM190GFP+, was constructed which contains the following elements: • the coding sequence for GFP controlled by a tTA/rtTA responsive promoter; • a tTA/rtTA encoding sequence that is constitutively expressed; • the URA3 marker that allows selection in appropriate yeast strains; • the replication function of the 2μ episome of S. cerevisiae. Unique endonuclease cleavage sites allow for the removal of the TetR, the activation domain, or the entire tTA encoding sequences, typically replaced by pools of mutagenized alleles obtained as described previously (Leung et al., 1989).\nThe gene encoding GFP was cloned into the multiple cloning site of pCM190 (Gari et al., 1997) to serve as an indicator of rtTA activity, yielding plasmid pCM190GFP+. The TetR portion of tTA was amplified for mutagenesis with two oligonucleotide primers, 5′-[…] (SEQ ID NO:46), and 5′-[…] (SEQ ID NO:47), from the vector pCM190 as described (Leung et al., 1989). The PCR-fragments and pCM190-GFP+ were restricted with XbalI and BsiWI and purified. The PCR-fragments and the vector were then ligated and transformed into E. coli DH5α. Several thousand E. coli clones were co-cultured, and their plasmid pools were prepared and transformed into S. cerevisiae using the LiAc-method (Ito et al., 1983). […]\nAccordingly, the resulting uracil-prototroph yeast clones were replica plated on minimal medium without uracil containing either Tc and/or Dox and scored after growth for two to three days at 30° C. using long wavelength UV-light to excite GFP fluorescence. […] The GFP fluorescence is shown on a logarithmic scale on the left axis. Fluorescence intensities are shown for each transactivator in the absence of inducer, in the presence of 10 μg/ml of Tc, and/or in the presence of 10 μg/ml of Dox. […]\nS. cerevisiae strains containing rtTA-34R, rtTA-44R and a GFP^31 strain, as well as strains containing the original tTA and rtTA were grown overnight in minimal medium. […] The light emission of these cells was scored in a fluorimeter using an excitation wavelength of 490 nm and recording emission at 512 nm. […]"}, "[2]": {"system": "luciferase gene controlled by Ptet", "experiment": "rtTA-dependent luciferase expression in transiently cotransfected HeLa cells (pUHC13-3)", "settings": "for induction of luciferase activity compared to rtTA: 5 μg/ml Tc or Dox; for reverse phenotype: transient expression, luciferase", "protocol": "rtTA-34R and rtTA-44R were then recloned into pUHD15-1 (Gossen & Bujard, 1992), replacing the respective portions of tTA. HeLa cells were transiently cotransfected with plasmids pUHC13-3, encoding the luciferase gene controlled by Ptet (Gossen & Bujard, 1992), and the pUHD15-1 plasmids containing the genes of the respective transactivators. Luciferase activities were measured in absence (light column) and presence of 5 μg/ml of the effectors tetracycline (Tc, light grey) or doxycycline (Dox, dark grey). On the X axis, (−) corresponds to control HeLa cells into which no DNA was transferred. […] The increased regulation factor observed results from both a lower basal and a higher induced activity.\nTo obtain additional information about the role of the mutated residues, we separated the mutations at positions 19 and 56 from those at 139, 148 and 179. The resulting proteins are called rtTA-1956R and rtTA-148179R. The activation potential of rtTA-1956R and rtTA-148179R was assessed in transient expression experiments. Plasmids encoding the respective rtTA variants were cotransfected with the pUHC13-3 luciferase indicator plasmid into HeLa cells and the luciferase activity was determined."}, "[3]": {"system": "luciferase reporter construct pUHC13-3", "experiment": "Doxycycline-dependent regulation of luciferase in HeLa cell lines stably producing the transactivator, reporter pUHC13-3 transiently transfected", "description": "In order to generate cell lines that maintain the plasmid episomally and thus produce the transactivator over extended periods of time, the transcription unit containing the rtTA-34R coding sequence controlled by the hCMV promoter was inserted into […] (Invitrogen, Carlsbad, USA) from which the RSV promoter had been excised. […] HeLa cells were transfected with the plasmid pCEP4-rtTA-34R, and clones isolated via G418 selection. Clones stably producing the transactivator were selected and tested for their ability to activate transcription from the transiently transfected luciferase reporter construct pUHC13-3 in the presence and absence of Dox.\nUpon addition of 5 μg/ml of Dox, luciferase activity is induced up to 600 fold. In comparison to the HeLa cell line HR5 harboring chromosomal copies of the rtTA gene (Gossen et al., 1995), the background level is reduced. […] This leads to a several hundred fold induction of gene expression in the case of the rtTA-34R clones whereas in HR5 cells rtTA achieves only a 20 to 30 fold induction under these conditions."}, "[4]": {"system": "Ptet-luciferase expression unit", "experiment": "Dox dependent luciferase activity in stably transfected HeLa cells (X1/6-34R-FFFF, HR5-CL11)", "settings": "X1/6-34R-FFFF or HR5-CL11", "description": "The coding sequence of rTetR-34R was fused with a DNA encoding four minimal activation domains (FFFF)(Baron et al., 1997) by insertion into a proper pUHD vector to generate plasmid […]. HeLa cell line X1/6 was transfected with plasmid pUHrT5 1-1 carrying the rtTA-34R-FFFF gene under the control of PhCMv. The resulting HeLa cell line X1/6-34R-FFFF contains, in addition, the Ptet-luciferase expression unit in a “silent but activatable” locus.\nCell lines derived from various clones that contain pUHrT51-1 stably inserted into the genome where it is constitutively expressed were isolated via hygromycin-B selection and analyzed for Dox dependent luciferase activity. […] This is most likely due to the residual affinity between rtTA and tetO."}, "[5]": {"settings": "cell line HeLa HR5 (Tet on), chromosomal copies of the rtTA gene"}, "[6]": {"settings": "cell line HeLa 0.34R-16, episomal pCEP4-rtTA-34R"}, "[7]": {"settings": "cell line HeLa 0.34R-33, episomal pCEP4-rtTA-34R"}, "[8]": {"settings": "cell line HeLa 0.34R-36, episomal pCEP4-rtTA-34R"}}, "data": [{"substance": "rtTA-44R: rtTA sequence variant T26A, D95G; aa = SEQ ID NO:13", "values": [{"measurement": "basal activity (GFP fluorescence in the absence of inducer)", "setting": "[1]", "value": "clearly lower as compared to rtTA"}, {"measurement": "induction of luciferase activity compared to rtTA", "setting": "[2]", "value": "not improved over rtTA"}, {"measurement": "reverse phenotype", "setting": "[2]", "value": "shows a reverse phenotype"}]}, {"substance": "rtTA: original reverse tetracycline controlled transactivator (Gossen et al., 1995), parent, SEQ ID NO: 22/23 [reference compound]", "values": [{"measurement": "induction factor of expression", "setting": "[1]; GFP fluorescence, Tc or Dox 10 μg/ml", "value": 40, "unit": "fold"}, {"measurement": "factor of induction", "setting": "[3]; cell line HeLa HR5 (Tet on)", "value": 27}, {"measurement": "Luciferase activity (RLU/μg protein) with Dox", "setting": "[3]; [5]", "value": "920 ± 170", "unit": "RLU/μg protein"}, {"measurement": "Luciferase activity (RLU/μg protein) without Dox", "setting": "[3]; [5]", "value": "26400 ± 4030", "unit": "RLU/μg protein"}, {"measurement": "induction of luciferase activity by Dox", "setting": "[4]", "value": "about 700 fold"}, {"measurement": "luciferase activity in the absence of Dox", "setting": "[4]", "value": "significant background luciferase activity"}]}, {"substance": "rtTA-34R: rtTA sequence variant E19G, A56P, H139H (silent), D148E, H179R; aa = SEQ ID NO:2", "values": [{"measurement": "basal activity (GFP fluorescence in the absence of inducer)", "setting": "[1]", "value": "clearly lower as compared to rtTA"}, {"measurement": "induction of luciferase activity compared to rtTA", "setting": "[2]", "value": "even higher induction of luciferase activity as compared to rtTA"}, {"measurement": "reverse phenotype", "setting": "[2]", "value": "improved reverse phenotype"}, {"measurement": "induced level of luciferase in comparison to HR5", "setting": "[3]; 5 μg/ml of Dox, rtTA-34R HeLa clones", "value": "significantly elevated"}, {"measurement": "induction of luciferase activity", "setting": "[3]; 5 μg/ml of Dox, rtTA-34R HeLa clones, rtTA in HR5 cells", "value": "up to 600 fold"}, {"measurement": "factor of induction", "setting": "[3]; cell line HeLa 0.34R-16", "value": 600}, {"measurement": "Luciferase activity (RLU/μg protein) with Dox", "setting": "[3]; [6]", "value": "540 ± 50", "unit": "RLU/μg protein"}, {"measurement": "Luciferase activity (RLU/μg protein) without Dox", "setting": "[3]; [6]", "value": "323600 ± 69470", "unit": "RLU/μg protein"}, {"measurement": "factor of induction", "setting": "[3]; cell line HeLa 0.34R-33", "value": 200}, {"measurement": "Luciferase activity (RLU/μg protein) with Dox", "setting": "[3]; [7]", "value": "360 ± 140", "unit": "RLU/μg protein"}, {"measurement": "Luciferase activity (RLU/μg protein) without Dox", "setting": "[3]; [7]", "value": "74620 ± 3230", "unit": "RLU/μg protein"}, {"measurement": "factor of induction", "setting": "[3]; cell line HeLa 0.34R-36", "value": 200}, {"measurement": "Luciferase activity (RLU/μg protein) with Dox", "setting": "[3]; [8]", "value": "430 ± 50", "unit": "RLU/μg protein"}, {"measurement": "Luciferase activity (RLU/μg protein) without Dox", "setting": "[3]; [8]", "value": "87000 ± 7820", "unit": "RLU/μg protein"}, {"measurement": "background level of luciferase in comparison to HR5", "setting": "[3]; without Dox, rtTA-34R HeLa clones", "value": "reduced"}]}, {"substance": "rtTA-1956R: rtTA sequence variant E19G, A56P; aa = SEQ ID NO:7", "values": [{"measurement": "reverse phenotype", "setting": "[2]", "value": "sufficient for the reverse phenotype"}]}]}
